Earlier results as cited in patent US5591773A, “Inhibition of cataract formation, diseases resulting from oxidative stress, and HIV replication by caffeic acid esters” (priority 1994, dated 1997).

How the values were obtained:
bovine lens (H2O2) = conditions: cited from earlier work
bovine lens (opacity) = conditions: cited from earlier work
[1] = test system: TPA-induced oxidative processes (PMN infiltration, reactive oxygen species generation, DNA base oxidation); conditions: sarcophytol A 6.5 nmol, TPA 6.5 nmol/treatment; cited from earlier work
tumor promotion = conditions: cited from earlier work
HeLa cells = conditions: cited from earlier work
mammalian cells = conditions: cited from earlier work

SMILES | inhibition of TPA-mediated H2O2 production, lens (in words) (bovine lens (H2O2)) | inhibition of TPA-mediated lens opacification (in words) (bovine lens (opacity)) | anti-tumor promoting properties (in words) (tumor promotion) | also measured
C/C1=C\C=C(\C(C)C)[C@@H](O)C/C(C)=C/CC/C(C)=C/CC1 [sarcophytol A] | effective inhibitors | effective inhibitors | known anti-tumor promoters | inhibition of TPA-induced oxidative processes (in words) [1]: potent inhibitor
O=C(O[C@@H]1Cc2c(O)cc(O)cc2O[C@@H]1c1cc(O)c(O)c(O)c1)c1cc(O)c(O)c(O)c1 [EGCG, (-)-epigallocatechin gallate] | effective inhibitors | effective inhibitors | known anti-tumor promoters | inhibition of TPA-induced oxidative processes (in words) (HeLa cells; EGCG 50 nmol): less effective inhibition of TPA-induced oxidative processes; HMdUrd and 8-OHdGua levels (in words) (HeLa cells; EGCG 5-25 nmol preincubation, TPA): contained lower levels of HMdUrd and 8-OHdGua than cells treated only with TPA
COc1cc(/C=C/C(=O)CC(=O)/C=C/c2ccc(O)c(OC)c2)ccc1O [curcumin] | – | – | known anti-tumor promoters | –
O=C(O)/C=C/c1ccc(O)c(O)c1 [caffeic acid] | – | – | known anti-tumor promoters | –
O=c1[nH]c(=O)n([C@H]2C[C@H](O)[C@@H](CO)O2)cc1CO [HMdUrd, 5-hydroxymethyl-2'-deoxyuridine] | – | – | – | cytotoxicity and mutagenicity (in words) (mammalian cells): cytotoxic and cytostatic to a number of mammalian cells and is mutagenic
